This note sets out measurements from patent publication US10752587B2, “Homobispiperidinyl derivatives as liver X receptor beta agonists, compositions and their use” (Merck Sharp & Dohme Corp., priority 2015, dated 2020).

Each structure is given as a SMILES string. Read-outs that look alike come from different tables or passages of the source.

Test [1] deals with T1, glutathione-S-transferase (GST) tagged LXRalpha LBD (ligand binding domain) (Homo sapiens, UniProt Q13133).
T1 construct: purchased Invitrogen pv4655
T1 sequence (Q13133 209-447 limits assumed): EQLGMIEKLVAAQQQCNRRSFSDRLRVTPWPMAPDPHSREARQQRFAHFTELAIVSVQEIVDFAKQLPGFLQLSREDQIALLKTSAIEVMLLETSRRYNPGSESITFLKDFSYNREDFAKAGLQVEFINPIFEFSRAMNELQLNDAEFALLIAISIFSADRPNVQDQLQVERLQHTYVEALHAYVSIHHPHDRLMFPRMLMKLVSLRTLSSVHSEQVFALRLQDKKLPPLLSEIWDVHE
In words: LanthaScreen TR-FRET Liver X Receptor Coactivator Assay, co-activator recruitment to LXRalpha LBD. The test is classed as biochemical. Put shortly:
(§1)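 Compound-induced coactivator recruitment by the GST-fused ligand binding domain, detected as TR-FRET between Tb-labelled anti-GST antibody and fluorescein-tagged coactivator peptide after room-temperature incubation. IP and Emax expressed versus T0901317 as reference agonist.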
Background: In TR-FRET formats the signal depends on donor and acceptor labels being close together.

In test [2] the target is T2, glutathione-S-transferase (GST) tagged LXRbeta LBD (ligand binding domain) (Homo sapiens, UniProt P55055).
T2 construct: purchased Invitrogen pv4658.pps
T2 sequence (P55055 222-460 limits assumed): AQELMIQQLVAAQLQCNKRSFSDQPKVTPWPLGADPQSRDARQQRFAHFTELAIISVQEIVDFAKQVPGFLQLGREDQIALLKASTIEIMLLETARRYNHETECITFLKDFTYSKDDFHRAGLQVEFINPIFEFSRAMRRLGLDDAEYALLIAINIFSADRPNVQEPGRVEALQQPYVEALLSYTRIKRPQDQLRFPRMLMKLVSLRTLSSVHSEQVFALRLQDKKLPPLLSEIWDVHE
In words: LanthaScreen TR-FRET Liver X Receptor Coactivator Assay, co-activator recruitment to LXRbeta LBD. The test is classed as biochemical. Put shortly:
as §1

[3] abbreviates: potency (Inflection Point, IP), co-activator recruitment to LXRalpha LBD, in relation to T0901317, read-out: LXR alpha IP.
Where [4] appears, read: LXR beta IP (nM), potency (Inflection Point, IP), co-activator recruitment to LXRbeta LBD, in relation to T0901317.
The mark [5] stands for this setting: read-out: LXR beta Activity @ max dose (%).
The mark [6] stands for this setting: efficacy at max dose, in relation to reference dual agonist T0901317, read-out: LXR alpha Activity @ max dose (%).
The mark [7] stands for this setting: potency (Inflection Point, IP), co-activator recruitment to LXRalpha LBD, in relation to T0901317.
The mark [8] stands for this setting: efficacy at max dose, in relation to reference dual agonist T0901317, read-out: LXR beta Activity @ max dose (%).
Setting [9] is: potency (Inflection Point, IP), co-activator recruitment to LXRbeta LBD, in relation to T0901317, read-out: LXR beta IP.
The mark [10] stands for this setting: co-activator recruitment to GST-LXRalpha LBD, TR-FRET.
Where [11] appears, read: efficacy in relation to reference dual agonist T0901317, read-out: LXR alpha Activity @ max dose.
Setting [12] is: co-activator recruitment to GST-LXRbeta LBD, TR-FRET, read-out: LXR beta IP (Inflection Point, potency).
Where [13] appears, read: efficacy in relation to reference dual agonist T0901317, read-out: LXR beta Activity @ max dose.
Where [14] appears, read: co-activator recruitment to GST-LXRalpha LBD, TR-FRET, read-out: LXR alpha IP (Inflection Point, potency).

Consider `CN(C)C(=O)c1ccc(N2CCC(SC3CCN(C(=O)[C@](O)(c4cccc(OC(F)(F)F)c4)C(F)(F)F)CC3)CC2)nc1Cl` [Example 9-1, (R)-2-chloro-N,N-dimethyl-6-(4-(1-(3,3,3-trifluoro-2-hydroxy-2-(3-(trifluoromethoxy)phenyl)propanoyl)piperidin-4-ylthio)piperidin-1-yl)nicotinamide], for which the EC50 in test [1] (setting [3]) is 546 nM; in test [2] (setting [4]) it was 13 nM. Also, the Emax in test [1] (read-out: LXR alpha Activity @ max dose (%)) was found to be 21%; in test [2] (setting [5]), 60%.

On to `COc1cccc([C@@](O)(C(=O)N2CCC(SC3CCN(c4ccc(C(=O)N(C)C)c(Cl)n4)CC3)CC2)C(F)(F)F)c1` [Example 9-2, 2-chloro-N,N-dimethyl-6-[4-({1-[(2R)-3,3,3-trifluoro-2-hydroxy-2-(3-methoxyphenyl)-propanoyl]piperidin-4-yl}sulfanyl)-piperidin-1-yl]-pyridine-3-carboxamide], for which the Emax in test [1] (setting [6]) came to 7%; in test [2] (setting [8]), 70%. The “LXR alpha IP (nM)” value in test [1] (setting [7]) is reported as “NO IP”. In test [2] (setting [9]), the EC50 turned out to be 14 nM.

As to `CN(C)C(=O)c1ccc(N2CCC(SC3CCN(C(=O)[C@](O)(c4cc(Cl)cc(Cl)c4)C(F)(F)F)CC3)CC2)nc1Cl` [Example 9-3, 2-chloro-6-[4-({1-[(2R)-2-(3,5-dichlorophenyl)-3,3,3-trifluoro-2-hydroxypropanoyl]-piperidin-4-yl}-sulfanyl)piperidin-1-yl]-N,N-dimethyl-pyridine-3-carboxamide], the Emax in test [1] (setting [6]) came out at 10%; in test [2] (setting [8]), 63%. In addition, in test [1] (setting [7]), the “LXR alpha IP (nM)” value is “NO IP”. In test [2] (setting [9]), the EC50 was 14 nM.

Regarding `COc1cccc([C@@](O)(C(=O)N2CCC(SC3CCN(c4ccc(C(=O)N(C)C)c(Cl)c4)CC3)CC2)C(F)(F)F)c1` [Example 10-1, (R)-2-chloro-N,N-dimethyl-4-(4-(1-(3,3,3-trifluoro-2-hydroxy-2-(3-methoxyphenyl)propanoyl)piperidin-4-ylthio)piperidin-1-yl)benzamide], the values for the Emax in test [1] (setting [6]) and in test [2] (setting [5]) were 8% and 56%, respectively. In test [1] (setting [7]), the “LXR alpha IP (nM)” value was “NO IP”. Moreover, the EC50 in test [2] (setting [4]) amounted to 22 nM.

As to `CNC(=O)c1ccc(N2CCC(SC3CCN(C(=O)[C@](O)(c4cccc(OC)c4)C(F)(F)F)CC3)CC2)nc1Cl` [Example 11-1, (R)-2-chloro-N-methyl-6-(4-(1-(3,3,3-trifluoro-2-hydroxy-2-(3-methoxyphenyl)propanoyl)piperidin-4-ylthio)piperidin-1-yl)nicotinamide], the Emax in test [1] (setting [6]) was 17%; in test [2] (setting [5]), 93%. Further, in test [1] (setting [7]), the “LXR alpha IP (nM)” value is “NO IP”. For the same compound, the EC50 in test [2] (setting [4]) was 17 nM.

For `CCOc1cccc([C@@](O)(C(=O)N2CCC(SC3CCN(c4ccc(C(=O)NC)c(Cl)n4)CC3)CC2)C(F)(F)F)c1` [Example 11-2, 2-chloro-6-[4-({1-[(2R)-2-(3-ethoxyphenyl)-3,3,3-trifluoro-2-hydroxypropanoyl]-piperidin-4-yl}-sulfanyl)piperidin-1-yl]-N-methyl-pyridine-3-carboxamide], the figures for the Emax in test [1] (setting [6]) and in test [2] (setting [8]) were 10% and 95%, respectively. Also, in test [1] (setting [7]), the “LXR alpha IP (nM)” value is reported as “NO IP”. Moreover, in test [2] (setting [9]), the EC50 was found to be 22 nM.

Consider `NC(=O)c1ccc(N2CCC(CC3CCN(C(=O)[C@](O)(c4cc(Cl)cc(Cl)c4)C(F)(F)F)CC3)CC2)cc1Cl` [Example 12-1, 2-chloro-4-[4-({1-[(2R)-2-(3,5-dichlorophenyl)-3,3,3-trifluoro-2-hydroxypropanoyl]piperidin-4-yl}methyl)piperidin-1-yl]benzamide], for which the Emax in test [1] (setting [6]) stood at 9%; in test [2] (setting [8]), 37%. Besides, in test [1] (setting [7]), the “LXR alpha IP (nM)” value is recorded as “NO IP”. Moreover, in test [2] (setting [9]), the EC50 is 3 nM.

For the compound `NC(=O)c1ccc(N2CCC(CC3CCN(C(=O)[C@](O)(c4ccccc4)C(F)(F)F)CC3)CC2)cc1Cl` [Example 12-2, 2-chloro-4-[4-({1-[(2R)-3,3,3-trifluoro-2-hydroxy-2-phenyl-propanoyl]piperidin-4-yl}methyl)piperidin-1-yl]benzamide], the Emax in test [1] (setting [6]) was 52%; in test [2] (setting [8]), 74%. Also, the EC50 turned out to be 58 nM in test [1] (setting [3]) and 9 nM in test [2] (setting [9]).

`COc1cc(F)cc([C@@](O)(C(=O)N2CCC(CC3CCN(c4ccc(C(N)=O)c(Cl)c4)CC3)CC2)C(F)(F)F)c1` [Example 12-3, 2-chloro-4-[4-({1-[(2R)-3,3,3-trifluoro-2-(3-fluoro-5-methoxy-phenyl)-2-hydroxy-propanoyl]piperidin-4-yl}methyl)-piperidin-1-yl]-benzamide]: the Emax in test [1] (setting [6]) was determined as 20%; in test [2] (setting [8]) it was 79%. Moreover, the EC50 came out at 49 nM in test [1] (setting [3]) and 5 nM in test [2] (setting [9]).

On to `COc1cccc([C@@](O)(C(=O)N2CCC(CC3CCN(c4ccc(C(N)=O)c(Cl)c4)CC3)CC2)C(F)(F)F)c1` [Example 12-4, 2-chloro-4-[4-({1-[(2R)-3,3,3-trifluoro-2-hydroxy-2-(3-methoxyphenyl)-propanoyl]piperidin-4-yl}methyl)piperidin-1-yl]benzamide], for which the Emax amounted to 13% in test [1] (setting [6]) and 55% in test [2] (setting [8]). In test [1] (setting [7]), the “LXR alpha IP (nM)” value is given as “NO IP”. Besides, the EC50 in test [2] (setting [9]) is 5 nM.

`NC(=O)c1ccc(N2CCC(CC3CCN(C(=O)[C@](O)(c4cccc(Cl)c4)C(F)(F)F)CC3)CC2)cc1Cl` [Example 12-5, 2-chloro-4-[4-({1-[(2R)-2-(3-chlorophenyl)-3,3,3-trifluoro-2-hydroxypropanoyl]-piperidin-4-yl}-methyl)piperidin-1-yl]benzamide]: the Emax in test [1] (setting [6]) stood at 38%; in test [2] (setting [8]), 76%. For the same compound, the EC50 in test [1] (setting [3]) worked out at 32 nM; in test [2] (setting [9]) it was 4 nM.

`CCc1cccc([C@@](O)(C(=O)N2CCC(CC3CCN(c4ccc(C(N)=O)c(Cl)c4)CC3)CC2)C(F)(F)F)c1` [Example 12-6, 2-chloro-4-[4-({1-[(2R)-2-(3-ethylphenyl)-3,3,3-trifluoro-2-hydroxy-propanoyl]piperidin-4-yl}methyl)piperidin-1-yl]benzamide]: the Emax in test [1] (setting [6]) is 23%; in test [2] (setting [8]), 40%. Also, the EC50 was determined as 30 nM in test [1] (setting [3]) and 7 nM in test [2] (setting [9]).

Regarding `CC(C)Oc1cccc([C@@](O)(C(=O)N2CCC(CC3CCN(c4ccc(C(N)=O)c(Cl)c4)CC3)CC2)C(F)(F)F)c1` [Example 12-7, 2-chloro-4-{4-[(1-{(2R)-3,3,3-trifluoro-2-hydroxy-2-[3-(1-methylethoxy)phenyl)-propanoyl}piperidin-4-yl)methyl]piperidin-1-yl}benzamide], the “LXR alpha IP (Inflection Point, potency)” value in test [1] (setting [10]) is recorded as “NO IP”. In addition, the Emax stood at 12% in test [1] (setting [11]) and 33% in test [2] (setting [13]). Further, the EC50 in test [2] (setting [12]) is 6 nM.

For `CCOc1cccc([C@@](O)(C(=O)N2CCC(CC3CCN(c4ccc(C(N)=O)c(Cl)c4)CC3)CC2)C(F)(F)F)c1` [Example 12-8, 2-chloro-4-[4-({1-[(2R)-2-(3-ethoxyphenyl)-3,3,3-trifluoro-2-hydroxypropanoyl]-piperidin-4-yl}methyl)-piperidin-1-yl]-benzamide], the “LXR alpha IP (Inflection Point, potency)” value in test [1] (setting [10]) is reported as “NO IP”. For the same compound, the Emax in test [1] (setting [11]) is 12%; in test [2] (setting [13]) it was 46%. Also, in test [2] (setting [12]), the EC50 was found to be 4 nM.

Take `NC(=O)c1ccc(N2CCC(CC3CCN(C(=O)C(O)(c4cc(F)cc(Cl)c4)C(F)(F)F)CC3)CC2)cc1Cl` (stereo not shown) [Example 12-9, 2-chloro-4-[4-({1-[2-(3-chloro-5-fluorophenyl)-3,3,3-trifluoro-2-hydroxy-propanoyl]piperidin-4-yl}methyl)piperidin-1-yl]benzamide]: the EC50 amounted to 47 nM in test [1] (setting [14]) and 8 nM in test [2] (setting [12]). Moreover, the results for the Emax in test [1] (setting [11]) and in test [2] (setting [13]) were 52% and 98%, respectively.

On to `CC(C)c1cccc([C@@](O)(C(=O)N2CCC(CC3CCN(c4ccc(C(N)=O)c(Cl)c4)CC3)CC2)C(F)(F)F)c1` [Example 12-10, 2-chloro-4-{4-[(1-{(2R)-3,3,3-trifluoro-2-hydroxy-2-[3-(1-methylethyl)phenyl]-propanoyl}piperidin-4-yl)methyl]piperidin-1-yl}benzamide], for which the EC50 in test [1] (setting [14]) stood at 85 nM; in test [2] (setting [12]) it was 8 nM. For the same compound, the Emax was 26% in test [1] (setting [11]) and 51% in test [2] (setting [13]).
